US20230192878A1, “METHODS, THERAPIES AND USES FOR TREATING CANCER” (PFIZER INC., priority 2020, published 2023)

What was measured:
H929 = assay: Cell surface BCMA expression after GSI, concentration series; format: cell-based; details: 24 hours
Protocol: (§1) Multiple myeloma cells (MM.1S, OPM2, H929, Molp8, RPMI8226) were seeded in a 96-well U bottom plate at 40,000 cells/well. Cells were incubated for 24 hours in the presence of GSI diluted in RPMI (0.1% DMSO). The following concentrations of the GSI were tested: 1000 nM, 500 nM, 100 nM, 50 nM, 25 nM, 10 nM, 5 nM, 2.5 nM, 1 nM, 0.1 nM, 0.01 nM. 24 hours later cells were collected and washed with PBS+2% FBS, followed by staining with ZombieNIR Viability Dye (Biolegend) at 1 in 500 dilution in PBS at room temperature for 20 minutes. Next, cells were washed with PBS+2% FBS and stained with anti-BCMA PE-labelled antibody (Biolegend) diluted in PBS+2% FBS for 30 minutes at 4° C. Cells were acquired on BD Flow Cytometer and analyzed using FlowJo flow cytometry analysis software. Dead cells were removed from analysis by gating on ZombieNIR negative population. BCMA mean fluorescence intensity (MFI) was plotted against GSI concentration to establish EC50.

MM.1S = assay: as above; format: cell-based; details: 24 hours
Protocol: as §1

Molp8 = assay: as above; format: cell-based; details: 24 hours
Protocol: as §1

OPM2 [1] = assay: as above; format: cell-based; details: 24 hours
Protocol: as §1

RPMI8226 = assay: as above; format: cell-based; details: 24 hours
Protocol: as §1

OPM2 [2] = assay: Soluble BCMA (sBCMA) shedding after GSI (ELISA); format: cell-based, Human; set-up: unit not given here; details: Table 6 (sBCMA in supernatant, ELISA), 24 hours
Raji = assay: Cell surface BCMA expression after GSI, time course and washout, lymphoma cells; format: cell-based
Protocol: Lymphoma cells (Raji) were seeded in a 6-well plate at 800,000 cells/2 ml/well with GSI diluted at 1 μM in RPMI medium (with 0.1% DMSO). Cells were collected to evaluate cell surface BCMA expression at baseline, and then at 3 hours, 6 hours and 24 hours after addition of the GSI. After 24 hours of incubation with the GSI, cells were washed twice in PBS and re-plated in fresh 6-well plates. […] At the indicated time points, samples were stained with a ZombieNIR Viability dye (Biolegend) for 20 minutes at room temperature at 1 in 500 dilution in PBS, washed with PBS+2% FBS and further stained with anti-BCMA PE-labelled antibody diluted in PBS+2% FBS for 30 minutes at 4° C. Samples were acquired on BD Flow Cytometer and analyzed using FlowJo software. Dead cells were removed from the analysis by gating on ZombieNIR negative population. BCMA mean fluorescence intensity (MFI) was plotted as a histogram.

[3] = Preliminary pharmacokinetic (PK) analysis, Phase 1 study; format: in vivo, human
Protocol: Therefore, a fixed dose is suitable for the dosing of PF-06863135. Based on the encouraging efficacy data and safety data obtained from Part I of Study, a promising RP2D for Part 2A of the study could be a fixed dose equivalent of 1000 μg/kg (i.e., 76 mg) of PF-06863135 either in Q1W or Q2W. A fixed dose equivalent of 600 μg/kg (ie, 44 mg) will likely be used as a priming dose on cycle zero day 1. The initial dose of 44 mg serves as a priming dose and is designed to mitigate the CRS symptoms of the later 76 mg dose. […] Subsequently, the 44 mg (priming) and 76 mg (maintenance) were selected as the single agent RP2D dose. Patient will be administered a single priming dose of 44 mg SC of PF06863135, followed by maintenance dosing of 76 mg Q1W SC or 76 mg Q2W starting 7 days after the single priming dose.

With `CCC[C@H](N[C@H]1CCc2cc(F)cc(F)c2C1)C(=O)Nc1cn(C(C)(C)CNCC(C)(C)C)cn1` [GSI, nirogacestat] the “BCMA (-PE) MFI” value (H929; H929, GSI 0.01 nM) was 4824.5, the “BCMA (-PE) MFI” value (H929; H929, GSI 0.1 nM) was 5305.5 and the “BCMA (-PE) MFI” value (H929; H929, GSI 1 nM) was 8615.5. For the same compound, the “BCMA (-PE) MFI” value (H929; H929, GSI 2.5 nM) was 10344.5, the “BCMA (-PE) MFI” value (H929; H929, GSI 5 nM) was 13226 and the “BCMA (-PE) MFI” value (H929; H929, GSI 10 nM) was 15670. The “BCMA (-PE) MFI” value (H929; H929, GSI 25 nM) was 18445.5, the “BCMA (-PE) MFI” value (H929; H929, GSI 50 nM) was 17424.5 and the “BCMA (-PE) MFI” value (H929; H929, GSI 100 nM) was 19455.5. The “BCMA (-PE) MFI” value (H929; H929, GSI 500 nM) was 20285.5, the “BCMA (-PE) MFI” value (H929; H929, GSI 1000 nM) was 21156 and the “BCMA (-PE) MFI” value (MM.1S; GSI 0.01 nM) was 15589.5. For the same compound, the “BCMA (-PE) MFI” value (MM.1S; GSI 0.1 nM) was 15775.5, the “BCMA (-PE) MFI” value (MM.1S; GSI 1 nM) was 14396 and the “BCMA (-PE) MFI” value (MM.1S; GSI 2.5 nM) was 21412.5. The “BCMA (-PE) MFI” value (MM.1S; GSI 5 nM) was 28832, the “BCMA (-PE) MFI” value (MM.1S; GSI 10 nM) was 31248 and the “BCMA (-PE) MFI” value (MM.1S; GSI 25 nM) was 37026.5. The “BCMA (-PE) MFI” value (MM.1S; GSI 50 nM) was 38111, the “BCMA (-PE) MFI” value (MM.1S; GSI 100 nM) was 37582.5 and the “BCMA (-PE) MFI” value (MM.1S; GSI 500 nM) was 35780. For the same compound, the “BCMA (-PE) MFI” value (MM.1S; GSI 1000 nM) was 35780, the “BCMA (-PE) MFI” value (Molp8; Molp8, GSI 0.01 nM) was 1191.5 and the “BCMA (-PE) MFI” value (Molp8; Molp8, GSI 0.1 nM) was 1242.5. The “BCMA (-PE) MFI” value (Molp8; Molp8, GSI 1 nM) was 1288.5, the “BCMA (-PE) MFI” value (Molp8; Molp8, GSI 2.5 nM) was 1401 and the “BCMA (-PE) MFI” value (Molp8; Molp8, GSI 5 nM) was 1761.5. For the same compound, the “BCMA (-PE) MFI” value (Molp8; Molp8, GSI 10 nM) was 2183.5, the “BCMA (-PE) MFI” value (Molp8; Molp8, GSI 25 nM) was 3691 and the “BCMA (-PE) MFI” value (Molp8; Molp8, GSI 50 nM) was 5120. For the same compound, the “BCMA (-PE) MFI” value (Molp8; Molp8, GSI 100 nM) was 5412, the “BCMA (-PE) MFI” value (Molp8; Molp8, GSI 500 nM) was 5640.5 and the “BCMA (-PE) MFI” value (Molp8; Molp8, GSI 1000 nM) was 6401. For the same compound, the “BCMA (-PE) MFI” value (OPM2 [1]; OPM2, GSI 0.01 nM) was 2093.5, the “BCMA (-PE) MFI” value (OPM2 [1]; OPM2, GSI 0.1 nM) was 2079.5 and the “BCMA (-PE) MFI” value (OPM2 [1]; OPM2, GSI 1 nM) was 2185. For the same compound, the “BCMA (-PE) MFI” value (OPM2 [1]; OPM2, GSI 2.5 nM) was 2358.5, the “BCMA (-PE) MFI” value (OPM2 [1]; OPM2, GSI 5 nM) was 2788.5 and the “BCMA (-PE) MFI” value (OPM2 [1]; OPM2, GSI 10 nM) was 3190.5. The “BCMA (-PE) MFI” value (OPM2 [1]; OPM2, GSI 25 nM) was 6575.5, the “BCMA (-PE) MFI” value (OPM2 [1]; OPM2, GSI 50 nM) was 10863 and the “BCMA (-PE) MFI” value (OPM2 [1]; OPM2, GSI 100 nM) was 14364. For the same compound, the “BCMA (-PE) MFI” value (OPM2 [1]; OPM2, GSI 500 nM) was 15910.5, the “BCMA (-PE) MFI” value (OPM2 [1]; OPM2, GSI 1000 nM) was 14747.5 and the “BCMA (-PE) MFI” value (RPMI8226; RPMI8226, GSI 0.01 nM) was 10028. For the same compound, the “BCMA (-PE) MFI” value (RPMI8226; RPMI8226, GSI 0.1 nM) was 10099, the “BCMA (-PE) MFI” value (RPMI8226; RPMI8226, GSI 1 nM) was 10483.5 and the “BCMA (-PE) MFI” value (RPMI8226; RPMI8226, GSI 2.5 nM) was 10226.5. For the same compound, the “BCMA (-PE) MFI” value (RPMI8226; RPMI8226, GSI 5 nM) was 10589.5, the “BCMA (-PE) MFI” value (RPMI8226; RPMI8226, GSI 10 nM) was 11181.5 and the “BCMA (-PE) MFI” value (RPMI8226; RPMI8226, GSI 25 nM) was 12617. The “BCMA (-PE) MFI” value (RPMI8226; RPMI8226, GSI 50 nM) was 13190.5, the “BCMA (-PE) MFI” value (RPMI8226; RPMI8226, GSI 100 nM) was 13416 and the “BCMA (-PE) MFI” value (RPMI8226; RPMI8226, GSI 500 nM) was 13464.5. For the same compound, the “BCMA (-PE) MFI” value (RPMI8226; RPMI8226, GSI 1000 nM) was 14362, the “BCMA (-PE) MFI” value (OPM2 [2]; OPM2, GSI 0.01 nM) was 6043.3 and the “BCMA (-PE) MFI” value (OPM2 [2]; OPM2, GSI 0.1 nM) was 8872.2. For the same compound, the “BCMA (-PE) MFI” value (OPM2 [2]; OPM2, GSI 1 nM) was 8014, the “BCMA (-PE) MFI” value (OPM2 [2]; OPM2, GSI 2.5 nM) was 7726.5 and the “BCMA (-PE) MFI” value (OPM2 [2]; OPM2, GSI 5 nM) was 7617.3. The “BCMA (-PE) MFI” value (OPM2 [2]; OPM2, GSI 10 nM) was 6488.6, the “BCMA (-PE) MFI” value (OPM2 [2]; OPM2, GSI 25 nM) was 4487.9 and the “BCMA (-PE) MFI” value (OPM2 [2]; OPM2, GSI 50 nM) was 3055.7. The “BCMA (-PE) MFI” value (OPM2 [2]; OPM2, GSI 100 nM) was 1238.6, the “BCMA (-PE) MFI” value (OPM2 [2]; OPM2, GSI 500 nM) was 23.8 and the “BCMA (-PE) MFI” value (OPM2 [2]; OPM2, GSI 1000 nM) was 0. For the same compound, the “BCMA (-PE) MFI” value (Raji; GSI 1 μM for 24 h, 3 h post wash) was 1619, the “BCMA (-PE) MFI” value (Raji; GSI 1 μM for 24 h, 5 h post wash) was 1822 and the “BCMA (-PE) MFI” value (Raji; GSI 1 μM for 24 h, 24 h post wash) was 795. For the same compound, the “BCMA (-PE) MFI” value (Raji; GSI 1 μM, 3 h after GSI) was 699, the “BCMA (-PE) MFI” value (Raji; GSI 1 μM, 6 h after GSI) was 735 and the “BCMA (-PE) MFI” value (Raji; GSI 1 μM, 24 h after GSI) was 1506.

For “PF-06863135: heterodimeric humanized full-length bispecific antibody with one BCMA binding arm and one CD3 binding arm”, the “Effect of body weight on PF-06863135 exposure” value [3] was “not a clinically relevant factor”.
